Results taken from patent US20220372033A1, “ANTIBACTERIAL COMPOUNDS” (Janssen Sciences Ireland Unlimited Company, priority 2019, published 2022).
Values joined by “and” are separate entries in the source; they are usually repeats but may differ in a detail not shown here. Equal entries are not always repeated. Where two headings read alike, the source gives them in different places.

Key:
[1] = target: hERG(DOF) (Homo sapiens, UniProt Q12809); assay: Cardio tox hERG(DOF)
From the text: (§1) The compounds of the invention/examples may have advantages associated with in vitro potency, kill kinetics (i.e. bactericidal effect) in vitro, PK properties, food effect, safety/toxicity (including liver toxicity, coagulation, 5-LO oxygenase), metabolic stability, Ames II negativity, MNT negativity, aqueous based solubility (and ability to formulate) and/or cardiovascular effect e.g. on animals (e.g. anesthetized guinea pig). The data below that was generated/calculated may be obtained using standard methods/assays, for instance that are available in the literature or which may be performed by a supplier (e.g. Microsomal Stability Assay—Cyprotex, Mitochondrial toxicity (Glu/Gal) assay—Cyprotex, as well as literature CYP cocktail inhibition assays).

[2] = tested on: rNaCH; assay: Cardio tox rNaCH
From the text: as §1

[3] = tested on: rCaCH; assay: Cardio tox rCaCH; conditions: read-out: Cardio tox rCaCH (pIC50) (converted)
From the text: as §1

[4] = tested on: Mycobacterium tuberculosis (Mtb) bacilli, strain H37Ra; assay: Phenotypic assay of O2 consumption rate (OCR), Test 4, Seahorse XFe96, with Compound X; conditions: after Compound X 0.9 μM, test compound 10 μM and uncoupler CCCP 1 μM
[5] = tested on: Mycobacterium tuberculosis strain H37Rv ΔctaE-ΔqcrCAB; assay: microbe, parasite or virus in culture; format: cell-based; conditions: 240 h
[6] = tested on: Mitochondrial toxicity (Glu/Gal); assay: Mitochondrial toxicity (Glu/Gal) assay; format: cell-based; conditions: for Mitotoxicity Score: Glu/Gal assay, <3 indicates no mitotoxicity alerts
From the text: as §1
Compounds of the invention/examples, may therefore have the advantage that: • No in vitro cardiotoxicity is observed (for example either due to the CVS results or due to the Glu/Gal assay results, for instance low mitotoxicity (<3 in the Glu/Gal assay indicates no mitotoxicity alerts); and/or • No reactive metabolite formation is observed (e.g. GSH);

hERG(DOF), sequence (Q12809 whole entry): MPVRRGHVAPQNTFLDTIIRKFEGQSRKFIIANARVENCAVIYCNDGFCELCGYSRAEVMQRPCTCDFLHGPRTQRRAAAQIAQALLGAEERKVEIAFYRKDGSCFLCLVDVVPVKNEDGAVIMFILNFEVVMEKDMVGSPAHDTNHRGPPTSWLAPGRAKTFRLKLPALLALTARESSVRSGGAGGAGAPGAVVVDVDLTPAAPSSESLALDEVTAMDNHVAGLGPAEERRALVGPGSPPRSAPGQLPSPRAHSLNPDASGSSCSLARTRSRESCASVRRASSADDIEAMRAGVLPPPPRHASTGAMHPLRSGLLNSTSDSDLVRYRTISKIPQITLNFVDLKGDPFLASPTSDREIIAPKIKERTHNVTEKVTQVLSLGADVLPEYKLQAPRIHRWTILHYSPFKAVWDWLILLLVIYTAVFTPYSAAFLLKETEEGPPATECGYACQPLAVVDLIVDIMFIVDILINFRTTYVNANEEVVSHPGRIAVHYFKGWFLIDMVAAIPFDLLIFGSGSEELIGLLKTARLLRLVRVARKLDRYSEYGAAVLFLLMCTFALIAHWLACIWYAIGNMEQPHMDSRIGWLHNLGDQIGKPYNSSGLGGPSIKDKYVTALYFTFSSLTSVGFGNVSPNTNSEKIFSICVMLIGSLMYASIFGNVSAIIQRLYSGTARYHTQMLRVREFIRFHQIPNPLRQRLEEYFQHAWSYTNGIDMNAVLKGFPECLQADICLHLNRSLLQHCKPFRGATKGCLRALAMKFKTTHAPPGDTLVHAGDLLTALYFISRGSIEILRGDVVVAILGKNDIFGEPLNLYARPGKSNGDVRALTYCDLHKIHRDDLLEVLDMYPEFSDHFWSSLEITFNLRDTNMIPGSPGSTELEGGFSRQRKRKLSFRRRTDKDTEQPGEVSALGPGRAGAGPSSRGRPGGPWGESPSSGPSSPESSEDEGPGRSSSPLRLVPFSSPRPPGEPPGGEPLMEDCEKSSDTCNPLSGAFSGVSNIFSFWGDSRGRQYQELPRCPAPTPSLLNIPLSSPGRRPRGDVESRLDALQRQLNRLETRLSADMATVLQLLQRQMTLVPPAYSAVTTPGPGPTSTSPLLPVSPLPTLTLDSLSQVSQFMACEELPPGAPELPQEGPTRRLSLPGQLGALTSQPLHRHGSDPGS

SMILES	melting point [°C]	IC50 [1] [µM]	IC50 [2] [µM]	IC50 [3] [µM]	(ii) % OCR after cccp [4]	IC50 [5] [µM]	Mitotoxicity Score [6]	IC50 ([6]; galactose medium, read-out: IC50, gal) [µM]	IC50 ([6]; glucose medium, read-out: IC50, glu) [µM]
Cc1c(-c2ccc3nc(-c4cccc(OC(F)(F)F)c4)cn3c2)[nH]c2ccccc2c1=O [Compound 5]	229.9	> 10	3.8	> 10	159.3%	> 100	–	–	–
Cc1c(-c2ccc3nc(Cc4ccc(OC(F)(F)F)cc4)cn3c2)[nH]c2ccccc2c1=O [Compound 2]	244.8	1.8	2.6	> 10	112.0%	91.8	positive	–	–
Cc1c(-c2ccc3cc(-c4cccc(OC(F)(F)F)c4)nn3c2)[nH]c2ccccc2c1=O [Compound 8]	–	–	–	–	93.125%	–	positive	10.8	≥ 200
Cc1c(-c2ccc3cc(-c4cccc(OC(F)(F)F)c4)cn3c2)[nH]c2ccccc2c1=O [Compound 3]	257.8	> 10	1.9	> 10	196.1% and 131.0%	> 100	negative	–	–
Cc1c(-c2ccc3cc(-c4cccc(OC(F)(F)F)c4)nn3c2)[nH]c2ccccc2c1=O [Compound 1]	243.7	3.98	3.02	3.5	93.2%	27.8	positive	–	–
CCc1nc2ccc(-c3[nH]c4ccccc4c(=O)c3C)cn2c1C(=O)NCc1ccc(OC(F)(F)F)cc1 [Compound 7]	–	–	–	–	110.6%	–	negative	–	–
Cc1c(-c2ccc3nc(-c4ccccc4)cn3c2)[nH]c2ccccc2c1=O [Compound 4]	337.2	–	–	–	144.1%	> 100	–	–	–
